Experimental findings from ChEMBL document CHEMBL5465560, “Selectivity Literature for EUbOPEN Chemogenomic Library” (2024) are described below.

The target of assay [1] is T1, TGF-beta receptor type-1 (Homo sapiens) (UniProt P36897).
T1 sequence (whole entry): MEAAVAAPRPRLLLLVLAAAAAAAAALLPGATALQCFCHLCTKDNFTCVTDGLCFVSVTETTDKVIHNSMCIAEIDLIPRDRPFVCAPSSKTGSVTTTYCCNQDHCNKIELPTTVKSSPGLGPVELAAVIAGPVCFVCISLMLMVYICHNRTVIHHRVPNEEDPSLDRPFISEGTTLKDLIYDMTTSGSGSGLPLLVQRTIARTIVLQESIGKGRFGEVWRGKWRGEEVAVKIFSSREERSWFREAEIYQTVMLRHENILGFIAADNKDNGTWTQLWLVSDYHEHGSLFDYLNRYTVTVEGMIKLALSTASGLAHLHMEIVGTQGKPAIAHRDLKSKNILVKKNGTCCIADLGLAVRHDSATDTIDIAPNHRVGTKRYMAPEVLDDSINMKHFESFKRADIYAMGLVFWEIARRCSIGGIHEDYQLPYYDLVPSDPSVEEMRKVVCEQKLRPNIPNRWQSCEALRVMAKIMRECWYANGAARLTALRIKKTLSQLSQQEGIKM
The experiment in a line: Selectivity interaction (ProQinase) EUB0000171b TGFBR1.

Assay [2] concerns the target Dual specificity protein kinase CLK3 (Homo sapiens, UniProt P49761). As to conditions: at 10 µM.
The target of assay [3] is Phosphatidylinositol 4-phosphate 3-kinase C2 domain-containing subunit beta (Homo sapiens) (UniProt O00750). Nature of the assay: Selectivity interaction (KinomeScan (DiscoverX)) EUB0000092b PIK3C2B. Particulars: at 10 µM.
Sequence of Phosphatidylinositol 4-phosphate 3-kinase C2 domain-containing subunit beta (Homo sapiens) (O00750 whole entry, the tested form may be a part): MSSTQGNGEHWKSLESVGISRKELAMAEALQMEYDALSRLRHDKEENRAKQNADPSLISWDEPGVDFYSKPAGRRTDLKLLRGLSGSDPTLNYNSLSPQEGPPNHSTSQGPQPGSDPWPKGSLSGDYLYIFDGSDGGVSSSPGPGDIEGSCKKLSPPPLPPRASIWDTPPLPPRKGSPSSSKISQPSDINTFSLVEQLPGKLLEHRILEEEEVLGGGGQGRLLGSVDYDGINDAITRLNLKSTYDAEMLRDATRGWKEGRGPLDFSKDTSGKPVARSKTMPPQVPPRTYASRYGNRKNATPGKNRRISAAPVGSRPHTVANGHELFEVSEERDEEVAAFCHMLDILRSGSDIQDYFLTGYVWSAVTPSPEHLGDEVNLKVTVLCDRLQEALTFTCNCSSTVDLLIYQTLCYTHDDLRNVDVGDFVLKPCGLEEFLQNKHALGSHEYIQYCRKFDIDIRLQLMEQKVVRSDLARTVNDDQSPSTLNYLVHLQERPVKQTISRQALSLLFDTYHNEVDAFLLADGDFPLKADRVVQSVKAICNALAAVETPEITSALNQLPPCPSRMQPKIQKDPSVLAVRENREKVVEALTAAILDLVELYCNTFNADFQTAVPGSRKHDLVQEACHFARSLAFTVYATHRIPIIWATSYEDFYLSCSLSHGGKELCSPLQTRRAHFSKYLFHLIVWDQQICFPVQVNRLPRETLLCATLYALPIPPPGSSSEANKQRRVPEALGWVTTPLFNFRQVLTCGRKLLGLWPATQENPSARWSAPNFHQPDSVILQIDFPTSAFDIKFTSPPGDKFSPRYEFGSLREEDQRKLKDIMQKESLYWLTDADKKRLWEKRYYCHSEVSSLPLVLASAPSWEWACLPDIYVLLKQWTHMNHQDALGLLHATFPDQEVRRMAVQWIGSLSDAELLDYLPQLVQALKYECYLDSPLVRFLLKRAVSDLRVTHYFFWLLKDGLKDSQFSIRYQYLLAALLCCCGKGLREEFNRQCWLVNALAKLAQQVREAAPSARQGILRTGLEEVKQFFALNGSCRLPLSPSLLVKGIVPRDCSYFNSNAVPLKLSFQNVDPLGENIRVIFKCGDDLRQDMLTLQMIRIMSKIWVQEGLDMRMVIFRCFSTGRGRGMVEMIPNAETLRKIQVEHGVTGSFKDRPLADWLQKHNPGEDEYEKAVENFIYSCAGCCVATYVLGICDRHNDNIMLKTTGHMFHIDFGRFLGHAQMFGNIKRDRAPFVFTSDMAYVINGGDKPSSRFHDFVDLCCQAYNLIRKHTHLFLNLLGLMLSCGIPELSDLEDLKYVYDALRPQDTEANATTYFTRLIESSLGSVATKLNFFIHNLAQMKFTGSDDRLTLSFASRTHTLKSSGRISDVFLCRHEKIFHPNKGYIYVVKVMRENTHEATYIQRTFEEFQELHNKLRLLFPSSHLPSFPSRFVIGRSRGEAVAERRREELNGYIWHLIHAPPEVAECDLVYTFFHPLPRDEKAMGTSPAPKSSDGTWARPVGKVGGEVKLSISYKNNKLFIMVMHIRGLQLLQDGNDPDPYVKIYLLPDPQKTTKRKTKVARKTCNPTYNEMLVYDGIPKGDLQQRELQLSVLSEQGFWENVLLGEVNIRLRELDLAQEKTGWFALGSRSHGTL
Assay [4] concerns the target T2, Dual specificity mitogen-activated protein kinase kinase 7 (Homo sapiens) (UniProt O14733).
T2 sequence (whole entry): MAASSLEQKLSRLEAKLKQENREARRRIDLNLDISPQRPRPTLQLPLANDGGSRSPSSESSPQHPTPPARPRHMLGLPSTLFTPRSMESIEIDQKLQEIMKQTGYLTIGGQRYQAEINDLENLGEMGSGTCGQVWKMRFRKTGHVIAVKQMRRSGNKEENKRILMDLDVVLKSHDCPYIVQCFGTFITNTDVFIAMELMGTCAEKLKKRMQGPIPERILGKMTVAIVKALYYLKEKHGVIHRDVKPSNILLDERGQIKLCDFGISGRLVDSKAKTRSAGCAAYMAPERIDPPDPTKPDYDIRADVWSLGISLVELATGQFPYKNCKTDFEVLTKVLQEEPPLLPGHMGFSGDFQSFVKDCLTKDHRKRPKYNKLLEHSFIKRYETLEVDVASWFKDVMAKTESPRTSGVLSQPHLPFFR
Nature of the assay: Selectivity interaction (KinomeScan (DiscoverX)) EUB0000607a MAP2K7. As to conditions: at 10 µM.

For assay [5], the target named is T3, Inhibitor of nuclear factor kappa-B kinase subunit beta (Homo sapiens) (UniProt O14920).
T3 sequence (whole entry): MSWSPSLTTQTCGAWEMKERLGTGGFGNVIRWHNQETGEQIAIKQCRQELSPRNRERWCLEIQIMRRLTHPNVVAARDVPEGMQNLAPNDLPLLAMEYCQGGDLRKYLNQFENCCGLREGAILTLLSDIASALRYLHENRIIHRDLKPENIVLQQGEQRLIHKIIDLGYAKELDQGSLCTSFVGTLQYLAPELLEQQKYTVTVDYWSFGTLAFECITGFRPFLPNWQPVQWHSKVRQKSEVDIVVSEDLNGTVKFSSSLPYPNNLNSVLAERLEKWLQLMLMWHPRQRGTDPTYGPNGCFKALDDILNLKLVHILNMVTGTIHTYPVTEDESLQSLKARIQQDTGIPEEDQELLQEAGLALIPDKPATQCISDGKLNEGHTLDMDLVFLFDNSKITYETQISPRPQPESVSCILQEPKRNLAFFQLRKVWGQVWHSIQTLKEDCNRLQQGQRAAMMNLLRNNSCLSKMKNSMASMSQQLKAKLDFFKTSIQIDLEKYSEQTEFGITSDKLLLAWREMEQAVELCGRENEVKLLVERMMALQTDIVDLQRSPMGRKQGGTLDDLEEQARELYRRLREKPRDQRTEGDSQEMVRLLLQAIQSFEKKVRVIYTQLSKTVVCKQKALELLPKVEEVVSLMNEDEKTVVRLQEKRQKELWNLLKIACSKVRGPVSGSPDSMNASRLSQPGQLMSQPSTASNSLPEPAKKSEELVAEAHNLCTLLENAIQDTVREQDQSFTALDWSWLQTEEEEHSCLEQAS
The experiment in a line: Selectivity interaction (ActivX KiNativ screen (kinase selectivity in THP-1 cell lysates)) EUB0000639a IKBKB. The class given is subcellular. As to conditions: lysate, at 0.2 µM.

Assay [6] concerns the target Phosphatidylinositol 4,5-bisphosphate 3-kinase catalytic subunit gamma isoform (Homo sapiens) (UniProt P48736). The experiment in a line: Selectivity interaction (KinomeScan (DiscoverX)) EUB0000229b PIK3CG. Particulars: at 10 µM.
The target of assay [7] is Ribosomal protein S6 kinase alpha-4 (Homo sapiens) (UniProt O75676). Nature of the assay: Selectivity interaction (ActivX KiNativ screen (ex vivo kinase selectivity in human PBMCs)) EUB0001619a RPS6KA4. The class given is cell-based. As to conditions: PBMC, at 1 µM.
Sequence of Ribosomal protein S6 kinase alpha-4 (Homo sapiens) (O75676 whole entry, looked up): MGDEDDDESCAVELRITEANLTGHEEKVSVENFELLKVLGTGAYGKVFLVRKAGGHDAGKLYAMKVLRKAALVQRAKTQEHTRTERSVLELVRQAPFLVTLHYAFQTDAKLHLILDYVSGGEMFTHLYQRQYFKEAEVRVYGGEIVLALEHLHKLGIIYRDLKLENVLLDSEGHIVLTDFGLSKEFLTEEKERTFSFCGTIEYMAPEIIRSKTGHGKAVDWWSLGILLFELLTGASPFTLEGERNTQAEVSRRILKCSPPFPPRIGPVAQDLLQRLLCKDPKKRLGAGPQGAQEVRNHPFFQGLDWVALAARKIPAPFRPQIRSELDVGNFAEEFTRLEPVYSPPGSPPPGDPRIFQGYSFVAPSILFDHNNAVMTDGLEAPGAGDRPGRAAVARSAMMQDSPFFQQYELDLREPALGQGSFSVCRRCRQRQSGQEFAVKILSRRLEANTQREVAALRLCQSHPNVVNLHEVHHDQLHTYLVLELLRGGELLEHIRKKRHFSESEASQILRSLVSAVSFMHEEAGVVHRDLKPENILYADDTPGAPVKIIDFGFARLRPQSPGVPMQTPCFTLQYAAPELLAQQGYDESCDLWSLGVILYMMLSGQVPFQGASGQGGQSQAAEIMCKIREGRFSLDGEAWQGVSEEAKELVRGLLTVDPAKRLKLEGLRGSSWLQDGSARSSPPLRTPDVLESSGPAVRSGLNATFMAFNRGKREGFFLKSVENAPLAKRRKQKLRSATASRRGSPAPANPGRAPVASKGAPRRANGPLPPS
Assay [8] deals with Cyclin-dependent kinase 14 (Homo sapiens) (UniProt O94921). Nature of the assay: Selectivity interaction (KinomeScan (DiscoverX)) EUB0001619a CDK14. As to conditions: at 1 µM.
Sequence of Cyclin-dependent kinase 14 (Homo sapiens) (O94921 whole entry): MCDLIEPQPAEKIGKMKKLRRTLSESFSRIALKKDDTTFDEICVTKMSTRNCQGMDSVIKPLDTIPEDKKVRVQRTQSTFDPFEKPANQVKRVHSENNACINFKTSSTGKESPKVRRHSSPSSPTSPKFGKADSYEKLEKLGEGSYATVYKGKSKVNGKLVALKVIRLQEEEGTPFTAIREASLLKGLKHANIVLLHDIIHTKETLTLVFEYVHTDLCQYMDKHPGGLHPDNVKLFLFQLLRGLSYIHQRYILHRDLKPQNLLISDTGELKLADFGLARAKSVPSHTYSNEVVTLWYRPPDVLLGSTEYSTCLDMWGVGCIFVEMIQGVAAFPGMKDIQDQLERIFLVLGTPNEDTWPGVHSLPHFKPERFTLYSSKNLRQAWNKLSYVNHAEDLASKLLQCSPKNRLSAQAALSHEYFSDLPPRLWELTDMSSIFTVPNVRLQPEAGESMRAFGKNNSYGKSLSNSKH

Sequence of Dual specificity protein kinase CLK3 (P49761 whole entry, looked up, the tested form may be a part): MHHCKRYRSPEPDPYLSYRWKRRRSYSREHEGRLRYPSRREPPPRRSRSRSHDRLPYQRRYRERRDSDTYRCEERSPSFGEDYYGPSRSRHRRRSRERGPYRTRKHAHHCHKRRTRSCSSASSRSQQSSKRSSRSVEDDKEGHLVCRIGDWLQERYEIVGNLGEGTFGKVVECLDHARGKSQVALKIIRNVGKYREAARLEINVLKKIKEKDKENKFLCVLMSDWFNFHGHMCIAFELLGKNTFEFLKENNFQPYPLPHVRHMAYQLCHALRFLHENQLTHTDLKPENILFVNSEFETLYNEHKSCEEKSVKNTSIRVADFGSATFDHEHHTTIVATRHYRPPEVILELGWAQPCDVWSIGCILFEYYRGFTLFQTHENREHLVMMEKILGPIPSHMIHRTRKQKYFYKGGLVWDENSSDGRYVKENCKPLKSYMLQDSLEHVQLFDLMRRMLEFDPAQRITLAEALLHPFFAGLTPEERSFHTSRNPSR
Sequence of Phosphatidylinositol 4,5-bisphosphate 3-kinase catalytic subunit gamma isoform (Homo sapiens) (P48736 whole entry, looked up, canonical isoform): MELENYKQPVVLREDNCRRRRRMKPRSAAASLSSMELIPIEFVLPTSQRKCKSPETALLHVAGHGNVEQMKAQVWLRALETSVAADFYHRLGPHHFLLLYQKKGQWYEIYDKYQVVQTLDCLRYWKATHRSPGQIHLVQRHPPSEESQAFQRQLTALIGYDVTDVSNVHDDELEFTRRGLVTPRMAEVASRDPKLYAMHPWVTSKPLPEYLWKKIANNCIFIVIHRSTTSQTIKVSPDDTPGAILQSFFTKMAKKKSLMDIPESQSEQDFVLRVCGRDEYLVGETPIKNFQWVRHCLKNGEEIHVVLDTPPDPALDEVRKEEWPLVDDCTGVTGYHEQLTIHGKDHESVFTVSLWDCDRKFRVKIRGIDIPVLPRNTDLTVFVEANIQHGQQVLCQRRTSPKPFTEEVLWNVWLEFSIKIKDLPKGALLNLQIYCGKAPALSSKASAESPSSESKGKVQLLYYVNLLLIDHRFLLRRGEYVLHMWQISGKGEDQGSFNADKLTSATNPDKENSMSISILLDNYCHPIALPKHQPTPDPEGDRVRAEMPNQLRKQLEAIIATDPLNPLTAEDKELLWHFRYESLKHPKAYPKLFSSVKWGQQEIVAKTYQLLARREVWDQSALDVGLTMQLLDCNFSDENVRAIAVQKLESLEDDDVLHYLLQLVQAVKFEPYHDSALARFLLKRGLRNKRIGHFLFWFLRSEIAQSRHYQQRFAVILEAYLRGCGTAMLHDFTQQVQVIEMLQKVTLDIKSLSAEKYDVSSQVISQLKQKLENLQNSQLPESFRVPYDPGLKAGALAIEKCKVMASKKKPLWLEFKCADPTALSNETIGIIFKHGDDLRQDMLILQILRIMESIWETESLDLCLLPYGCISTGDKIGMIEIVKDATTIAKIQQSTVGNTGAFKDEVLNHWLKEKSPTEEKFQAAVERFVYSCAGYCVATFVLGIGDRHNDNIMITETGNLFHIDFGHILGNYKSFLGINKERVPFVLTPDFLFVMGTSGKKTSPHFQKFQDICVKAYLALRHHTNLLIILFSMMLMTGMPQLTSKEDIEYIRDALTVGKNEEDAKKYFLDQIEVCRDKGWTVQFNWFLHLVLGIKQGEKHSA

For the compound `C=CC(=O)Nc1cccc(C(=O)Nc2ccc(Nc3cc(-c4[nH]c(SC)nc4C)ccn3)cc2)c1`, the % of control was determined as 106% in assay [1] (at 1 µM) and 92% in assay [1] (at 5 µM).

Consider `Cc1cc([C@@H](C)Nc2ccccc2C(=O)O)c2nc(N3CCOCC3)cc(=O)n2c1` [AZD-6482], for which the % of control in assay [2] is 100%.

In assay [3], `CCC(=O)N1CCN(c2ccc(-n3c(=O)ccc4cnc5ccc(-c6cnc7ccccc7c6)cc5c43)cc2C(F)(F)F)CC1` yielded a % of control of 25%.

On to `CNC(=O)Nc1ccc(-c2nc(N3CC4CCC(C3)O4)c3cnn(C4CCC5(CC4)OCCO5)c3n2)cc1`, for which the % of control in assay [4] amounted to 100%.

Take `CC[C@@H]1[C@H](F)C(=O)N[C@@H]1COc1nccc2cc(C(N)=O)c(OC)cc12` [ZIMLOVISERTIB]: in assay [5], the % of inhibition is -2.2%.

`COc1cc(N(C)c2ccnc3ccc(C(F)(F)F)cc23)cc(OC)c1OC`: in assay [6], the % binding was determined as 99%.

Turning to `N#Cc1cccc(-c2c[nH]c3ncnc(N4CCOCC4)c23)c1`, the % of inhibition in assay [7] is 20%. In assay [8], this compound registered a % of control of 100%.
